Laboratory results taken from patent US8067603B2 (priority 2003, dated 2011).
“And” between values parts separate entries of the source, which are not always exact repeats. Equal values may be shown once.

Assays:
Male Wistar rats = conditions: rat, in vivo
rats = conditions: single i.v. dose 10 minutes before agonist: J-113397 1 mg/kg, naloxone 2 mg/kg

Structure (SMILES)	effect on food intake versus the vehicle treated group (Male Wistar rats; ip)	increase in food intake: antagonism by the opiate receptor antagonist naloxone (Male Wistar rats; ip)	Mean ± S.E.M. food intake 120 min after ligand administration (Male Wistar rats)	effect on the nociceptin-induced decrease in blood pressure (rats)
CN1CC[C@]23c4c5ccc(O)c4O[C@H]2[C@@H](O)C=C[C@H]3[C@H]1C5 [Morphine, morphine]	dose-dependent increase in food-intake	antagonized	–	–
C=CCN1CC[C@]23c4c5ccc(O)c4O[C@H]2C(=O)CC[C@@]3(O)[C@H]1C5 [naloxone]	no effect on food intake	–	0.09 ± 0.09 g and 0.05 ± 0.001 g	without effect
